Assay results from publication PMC7935272 (PLoS Pathogens, 2021).
Read-outs that look alike come from different tables or passages of the source.

Assays:
MeV [1] = test: Cell-based anti-MeV assays of earlier work
MeV [2] = conditions: cited from earlier work; for IC50: Figure 7A source data; for EC50: experimental activity, read-out: EC50
[3] = cited from earlier work
[4] = −log10(EC50) of literature EC50

Compound	IC50 (MeV [1]; Figure 7A source data)	IC50 (MeV [1]; [4])	IC50 (MeV [2])	EC50 (MeV [2])	CC50 [3]
CCn1nc(C(F)(F)F)cc1C(=O)Nc1ccc(S(=O)(=O)N2CCCCC2C)cc1 (centres unmarked) [9a, S(=O)(=O)(N1C(C)CCCC1)c1ccc(NC(=O)c2n(CC)nc(C(F)(F)F)c2)cc1]	55 nM	55.1 nM	55 nM	55 nM	30 µM
CC1CCCCN1S(=O)(=O)c1ccc(NC(=O)c2cc(C(F)(F)F)cn2C)cc1 (centres unmarked) [15b, S(=O)(=O)(N1C(C)CCCC1)c1ccc(NC(=O)c2n(C)cc(C(F)(F)F)c2)cc1]	29 nM	29 nM	28.9 nM	28 nM	> 300 µM
Cn1nc(C(F)(F)F)cc1C(=O)Nc1ccc(S(=O)(=O)N2CCC[C@@H]2C(=O)O)cc1 [AS-105, S(=O)(=O)(N1[C@@H](C(=O)O)CCC1)c1ccc(NC(=O)c2n(C)nc(C(F)(F)F)c2)cc1]	23000 nM	23000 nM	23000 nM	23000 nM	> 300 µM
Cn1cc(C(F)(F)F)cc1C(=O)Nc1ccc(S(=O)(=O)N2CCCC2C(=O)O)cc1 (centres unmarked) [15i, S(=O)(=O)(N1C(C(=O)O)CCC1)c1ccc(NC(=O)c2n(C)cc(C(F)(F)F)c2)cc1]	23000 nM	23000 nM	23000 nM	23000 nM	> 300 µM
Cn1nc(C(F)(F)F)cc1C(=O)Cc1ccc(S(=O)(=O)N2CCCC2)cc1 [MS-26, S(=O)(=O)(N1CCCC1)c1ccc(CC(=O)c2n(C)nc(C(F)(F)F)c2)cc1]	15500 nM	15500 nM	15500 nM	15500 nM	> 300 µM
CCOC(=O)CCC1CCCCN1S(=O)(=O)c1ccc(NC(=O)c2cc(C(F)(F)F)nn2C)cc1 (centres unmarked) [2i, S(=O)(=O)(N1C(CCC(=O)OCC)CCCC1)c1ccc(NC(=O)c2n(C)nc(C(F)(F)F)c2)cc1]	6700 nM	6710 nM	6690 nM	6600 nM	> 100 µM
COc1ccccc1S(=O)(=O)c1ccc(NC(=O)c2cc(C(F)(F)F)nn2C)cc1 [3b, S(=O)(=O)(c1c(OC)cccc1)c1ccc(NC(=O)c2n(C)nc(C(F)(F)F)c2)cc1]	3100 nM	3100 nM	3090 nM	3000 nM	> 100 µM
Cn1cc(C(F)(F)F)cc1C(=O)Nc1ccc(S(=O)(=O)N2CCCCCCC2)cc1 [15g, S(=O)(=O)(N1CCCCCCC1)c1ccc(NC(=O)c2n(C)cc(C(F)(F)F)c2)cc1]	45 nM	45.1 nM	45 nM	45 nM	> 300 µM
CC1CCN(S(=O)(=O)c2ccc(NC(=O)c3cc(C(F)(F)F)cn3C)cc2)CC1 [15c, S(=O)(=O)(N1CCC(C)CC1)c1ccc(NC(=O)c2n(C)cc(C(F)(F)F)c2)cc1]	35 nM	35.1 nM	35 nM	35 nM	> 300 µM
CCOC(=O)C=CC1CCCCN1S(=O)(=O)c1ccc(NC(=O)c2cc(C(F)(F)F)nn2C)cc1 (centres unmarked) [2g, S(=O)(=O)(N1C(C=CC(=O)OCC)CCCC1)c1ccc(NC(=O)c2n(C)nc(C(F)(F)F)c2)cc1]	6800 nM	6810 nM	6800 nM	6800 nM	> 100 µM
Cn1nc(C(F)(F)F)cc1C(=O)Nc1ccc(S(=O)(=O)N2CCCCC2CO)cc1 (centres unmarked) [28c, S(=O)(=O)(N1C(CO)CCCC1)c1ccc(NC(=O)c2n(C)nc(C(F)(F)F)c2)cc1]	850 nM	851 nM	850 nM	850 nM	–
Cn1nc(C(F)(F)F)cc1C(=O)Nc1ccc(S(=O)(=O)N2CCCC[C@H]2CCO)cc1 [2k, S(=O)(=O)(N1[C@H](CCO)CCCC1)c1ccc(NC(=O)c2n(C)nc(C(F)(F)F)c2)cc1]	–	100 nM	–	100 nM	> 100 µM
C=CCN(CC=C)S(=O)(=O)c1ccc(NC(=O)c2cc(C(F)(F)F)cn2C)cc1 [15r, S(=O)(=O)(N(CC=C)CC=C)c1ccc(NC(=O)c2n(C)cc(C(F)(F)F)c2)cc1]	3300 nM	3300 nM	3300 nM	3300 nM	34 µM
Cn1cc(C(F)(F)F)cc1C(=O)Nc1ccc(S(=O)(=O)N2CCC[C@@H]2C(=O)OC(=O)c2ccccc2)cc1 [15h, S(=O)(=O)(N1[C@@H](C(=O)OC(=O)c2ccccc2)CCC1)c1ccc(NC(=O)c2n(C)cc(C(F)(F)F)c2)cc1]	14000 nM	14000 nM	14000 nM	14000 nM	> 100 µM
Cn1nc(C(F)(F)F)cc1C(=O)Nc1ccc(S(=O)(=O)N2CCCCC2)cc1 [AS-136a, S(=O)(=O)(N1CCCCC1)c1ccc(NC(=O)c2n(C)nc(C(F)(F)F)c2)cc1]	14 nM	14 nM	14 nM	14 nM	> 300 µM
CCC1CCCCN1S(=O)(=O)c1ccc(NC(=O)c2cc(C(F)(F)F)cn2C)cc1 (centres unmarked) [15e, S(=O)(=O)(N1C(CC)CCCC1)c1ccc(NC(=O)c2n(C)cc(C(F)(F)F)c2)cc1]	87 nM	87.1 nM	86.9 nM	86 nM	> 300 µM

Compound	IC50 (MeV [1]; Figure 7A source data)	IC50 (MeV [1]; [4])	IC50 (MeV [2])	EC50 (MeV [2])	CC50 [3]
Cn1cc(C(F)(F)F)cc1C(=O)Nc1ccc(S(=O)(=O)N2CCCCCC2)cc1 [15f, S(=O)(=O)(N1CCCCCC1)c1ccc(NC(=O)c2n(C)cc(C(F)(F)F)c2)cc1]	5 nM	5 nM	5 nM	5 nM	> 300 µM
Cn1nc(C(F)(F)F)cc1C(=O)Nc1ccc(S(=O)(=O)N2CCCC2)cc1 [compound 16677, S(=O)(=O)(N1CCCC1)c1ccc(NC(=O)c2n(C)nc(C(F)(F)F)c2)cc1]	240 nM	240 nM	239 nM	230 nM	> 300 µM
CC(=O)Oc1ccccc1S(=O)(=O)c1ccc(NC(=O)c2cc(C(F)(F)F)nn2C)cc1 [3d, S(=O)(=O)(c1c(OC(=O)C)cccc1)c1ccc(NC(=O)c2n(C)nc(C(F)(F)F)c2)cc1]	4500 nM	4510 nM	4500 nM	4500 nM	> 100 µM
CC1CCCC(C)N1S(=O)(=O)c1ccc(NC(=O)c2cc(C(F)(F)F)cn2C)cc1 (centres unmarked) [15d, S(=O)(=O)(N1C(C)CCCC1C)c1ccc(NC(=O)c2n(C)cc(C(F)(F)F)c2)cc1]	14 nM	14 nM	14 nM	14 nM	> 300 µM
CCN(CC)S(=O)(=O)c1ccc(NC(=O)c2cc(C(F)(F)F)cn2C)cc1 [15n, S(=O)(=O)(N(CC)CC)c1ccc(NC(=O)c2n(C)cc(C(F)(F)F)c2)cc1]	19 nM	19 nM	18.9 nM	18 nM	> 300 µM
Cn1nc(C(F)(F)F)cc1C(=O)Nc1ccc(S(=O)(=O)c2ccccc2)cc1 [3a, S(=O)(=O)(c1ccc(NC(=O)c2n(C)nc(C(F)(F)F)c2)cc1)c1ccccc1]	90 nM	90.2 nM	90 nM	90 nM	> 100 µM
Cn1cc(C(F)(F)F)cc1C(=O)Nc1ccc(S(=O)(=O)N2CCCCC2)cc1 [15a, S(=O)(=O)(N1CCCCC1)c1ccc(NC(=O)c2n(C)cc(C(F)(F)F)c2)cc1]	14 nM	14 nM	14 nM	14 nM	> 300 µM
O=C(Nc1ccc(S(=O)(=O)N2CCCC2)cc1)c1nccn1-c1ccccc1C(F)(F)F [MS-12, S(=O)(=O)(N1CCCC1)c1ccc(NC(=O)c2n(-c3c(C(F)(F)F)cccc3)ccn2)cc1]	65000 nM	65000 nM	65000 nM	65000 nM	> 300 µM
CCCN(CCC)S(=O)(=O)c1ccc(NC(=O)c2cc(C(F)(F)F)cn2C)cc1 [15p, S(=O)(=O)(N(CCC)CCC)c1ccc(NC(=O)c2n(C)cc(C(F)(F)F)c2)cc1]	190 nM	190 nM	190 nM	190 nM	> 300 µM
CN(C)S(=O)(=O)c1ccc(NC(=O)c2cc(C(F)(F)F)cn2C)cc1 [15m, S(=O)(=O)(N(C)C)c1ccc(NC(=O)c2n(C)cc(C(F)(F)F)c2)cc1]	6300 nM	6310 nM	6300 nM	6300 nM	> 300 µM
Cn1nc(C(F)(F)F)cc1C(=O)Nc1ccc(S(=O)(=O)c2ccccc2O)cc1 [3c, S(=O)(=O)(c1c(O)cccc1)c1ccc(NC(=O)c2n(C)nc(C(F)(F)F)c2)cc1]	4500 nM	4510 nM	4500 nM	4500 nM	75 µM
COCOCC1CCCCN1S(=O)(=O)c1ccc(NC(=O)c2cc(C(F)(F)F)nn2C)cc1 (centres unmarked) [1a, S(=O)(=O)(N1C(COCOC)CCCC1)c1ccc(NC(=O)c2n(C)nc(C(F)(F)F)c2)cc1]	1500 nM	1500 nM	1500 nM	1500 nM	> 100 µM
Cn1cc(C(F)(F)F)cc1C(=O)Nc1ccc(S(=O)(=O)N2CCC(C(F)(F)F)CC2)cc1 [15k, S(=O)(=O)(N1CCC(C(F)(F)F)CC1)c1ccc(NC(=O)c2n(C)cc(C(F)(F)F)c2)cc1]	20 nM	20 nM	20 nM	20 nM	159 µM
Cn1nc(C(F)(F)F)cc1C(O)Cc1ccc(S(=O)(=O)N2CCCC2)cc1 (centres unmarked) [MS-27, S(=O)(=O)(N1CCCC1)c1ccc(CC(O)c2n(C)nc(C(F)(F)F)c2)cc1]	41000 nM	41000 nM	41000 nM	41000 nM	> 300 µM
CC(C)N(C(C)C)S(=O)(=O)c1ccc(NC(=O)c2cc(C(F)(F)F)cn2C)cc1 [15o, S(=O)(=O)(N(C(C)C)C(C)C)c1ccc(NC(=O)c2n(C)cc(C(F)(F)F)c2)cc1]	530 nM	531 nM	529 nM	520 nM	> 300 µM
